The structures appear in SMILES notation. Where two headings read alike, the source gives them in different places.

Format in all cases: cell-based, Bovine
Series [1] relates to uPA mRNA. Briefly: Northern blot analysis, uPA mRNA, BME cells. The following applies: 10µM, after 9 hours. Here is the method: (§1) (±)-8-Prenylnaringenin or genistein were added to confluent BME cell monolayers to which fresh medium containing 5% DCS had been added 24 hours previously. Total cellular RNA was prepared after the indicated times using Trizol reagent (Life Technologies AG, Basel, Switzrland) according to the manufacturer's instructions. Northern blots, UV cross-linking and methylene blue staining of filters, in vitro transcription, hybridization and post-hybridization washes were as previously described (Pepper et al., 1990, J. Cell Biol. 111: 743-755). […] Autoradiograms were scanned and quantitated using ImageQuant (Molecular Dynamics, Sunnyvale, CA).
(§2) Replicate filters containing total cellular RNA (5 µg/lane) prepared from confluent monolayers of BME cells incubated in the absence (Control) or presence of 10µM (±)-8-prenylnaringenin for the indicated times, were hybridized with ^32P-labelled cRNA probes. RNA integrity and uniformity of loading were determined by staining the filters with methylene blue after transfer and cross-linking (lower panel of the figure); 28S and 18S ribosomal RNAs are shown.

The test system of series [2] is uPAR mRNA. Briefly: Northern blot analysis, uPAR mRNA, BAE cells. As to the method: (§3) (±)-8-Prenylnaringenin or genistein were added to confluent BME cell monolayers to which fresh medium containing 5% DCS had been added 24 hours previously. Total cellular RNA was prepared after the indicated times using Trizol reagent (Life Technologies AG, Basel, Switzrland) according to the manufacturer's instructions. Northern blots, UV cross-linking and methylene blue staining of filters, in vitro transcription, hybridization and post-hybridization washes were as previously described (Pepper et al., 1990, J. Cell Biol. 111: 743-755). [^32P]-labelled cRNA probes were prepared from bovine urokinase-type plasminogen activator (u-PA) (Krätzschmar et al., 1993, Gene 125: 177-183), bovine u-PA receptor (u-PAr) (Krätzschmar et al., 1993, Gene 125: 177-183), human tissue-type PA (t-PA) (Fisher et al., 1985, J. Biol. Chem. 260: 11223-11230) and bovine PA inhibitor-1 (PAI-1) (Pepper et al., 1990, J. Cell Biol. 111: 743-755) cDNAs as previously described (Pepper et al., 1990, J. Cell Biol. 111: 743-755). Filters were exposed to Kodak X-OMAT XAR-5 Scientific Imaging Film (Eastman Kodak Co., Rochester, NY). Autoradiograms were scanned and quantitated using ImageQuant (Molecular Dynamics, Sunnyvale, CA).

The next series relates to tPA mRNA. Briefly: Northern blot analysis, tPA mRNA, BME cells. The following applies: 10µM, after 9 hours. Here is the method: as §1, §2
Series [3] concerns uPA mRNA. Briefly: Northern blot analysis, uPA mRNA, BAE cells.
Series [4] deals with PAI-1. Briefly: Reverse zymography, PAI-1 activity, BAE cells. Here is the method: (§4) Confluent monolayers of BME or BAE cells in 35mm gelatin-coated tissue culture dishes were washed twice with serum-free medium, and were treated with (±)-8-Prenylnaringenin in the absence or presence of bFGF or VEGF in serum-free medium containing Trasylol (200 Kallikrein Inhibitory Units/ml). 15 hours later, cell extracts were prepared and analyzed by zymography and reverse zymography as previously described (Vassalli et al., 1984, J. Exp. Med. 159: 1653-1668).
(§5) Cell extracts (CE) and culture supernatants (Sup) prepared from BAE cells incubated with (±)-8-prenylnaringenin at the indicated concentrations in the absence or presence of bFGF (3ng/ml) for 15 hours, were subjected to zymography (uPA, tPA and tPA/PAI-1 complex activities) and reverse zymography (PAI-1 activity). The second panel marked CE is a longer incubation of the gel shown in the top panel.

For series [5], the system named is uPA. Briefly: Zymography of cell extracts, uPA activity, BME cells. The following applies: 15 hours, serum-free. Here is the method:
as §4
(§6) Cell extracts (CE) and culture supernatants (Sup) prepared from BME cells incubated with (±)-8-prenylnaringenin at the indicated concentrations in the absence or presence of bFGF (10ng/ml) for 15 hours, were subjected to zymography (uPA, tPA and tPA/PAI-1 complex activities) and reverse zymography (PAI-1 activity)

In series [6] the test system is PAI-1. Briefly: Reverse zymography, PAI-1 activity, BME cells. As to conditions: 15 hours, serum-free. Here is the method: as §4, §6
The subject of series [7] is tPA. Briefly: Zymography of cell extracts, tPA activity, BAE cells. Here is the method: as §4, §5
Series [8] has as its system tPA. Briefly: Zymography of cell extracts, tPA activity, BME cells. As to the method: as §4, §6
Series [9] concerns uPAR mRNA. Briefly: Northern blot analysis, uPAR mRNA, BME cells. The following applies: 10µM, after 9 hours. As to the method: as §1, §2
The subject of series [10] is tPA. Briefly: Northern blot analysis, tPA mRNA, BAE cells. The following applies: after 24 hours.
In series [11] the test system is BME cells. Briefly: In vitro angiogenesis assay (invasion of three-dimensional collagen gels). The source says:
bFGF and VEGF induce BME and BAE cells to invade three-dimensional collagen gels, and this is accompanied by the formation of capillary like tubular structures (Montesano et al., Proc. Natl. Acad. Sci. USA 83: 7297-7301, 1986; Pepper et al., Biochem. Biophys. Res. Comm. 189: 824-831, 1992; Pepper et al., Exp. Cell Res. 204: 356-363, 1993, Pepper et al., J. Cell Sci. 108: 73-83, 1995). In addition, bFGF and VEGF induce a synergistic invasive response in BME and BAE cells (Pepper et al., 1992, Biochem. Biophys. Res. Commun. 189: 824-831; Pepper et al 1995, J. Cell Sci. 108: 73-83).
Three-dimensional collagen gels were prepared as described (Montesano et al., Cell 42: 469-477, 1985): 8 volumes of a solution of type I collagen from rat tail tendons (approximately 1.5mg/ml) were mixed with 1 volume of 10x minimal essential medium and 1 volume of sodium bicarbonate (11.76mg/ml) on ice, dispensed into 18mm tissue culture wells, and allowed to gel at 37 °C for 10 minutes. […] Invasion was quantitated by determining the total additive length of all cellular structures which had penetrated beneath the surface monolayer either as apparently single cells or in the form of cell cords (Pepper et al., Biochem. Biophys. Res. Comm. 189: 824-831, 1992). Results are expressed as the mean total additive sprout length in µm ± s.e.m., and are from three separate experiments per condition. […]

The subject of series [12] is BME cells. Briefly: 5 day proliferation assay. As to conditions: Bos taurus; for inhibition at 30 µM: maximal inhibitory effect, read-out: % inhibition of BME cell proliferation. Here is the method:
BME cells were seeded into gelatin-coated wells of 24 well plates at 10'000 cells per well in α-MEM supplemented with 5% DCS. 24 hours later, fresh medium was added together with 8-Prenylnaringenin at the indicated concentrations or TGF-β1 (1ng/ml), and bFGF (10ng/ml) was added to half the wells. 2 days later, medium and compounds were renewed, and after a further 3 days (i.e. 5 day assay), cells were trypsinized and counted in a FACScan Analyzer. Results are shown as % inhibition calculated from the mean of duplicate wells.
8-Prenylnaringenin reduces endothelial cell number in a 5 day proliferation assay. BME cells were seeded into 24 well plates at 10'000 cells per well in medium containing 5% DCS. 24 hours later, cells were treated with 8-Prenylnaringenin at the indicated concentrations or with TGF-β1 (1ng/ml), and bFGF (10ng/ml) was added to half the wells. Results are shown as % inhibition calculated from the mean of duplicate wells.

In series [13] the test system is uPA. Briefly: Zymography of cell extracts, uPA activity, BAE cells. Here is the method:
as §4, §5

The next series deals with PAI-1 mRNA. Briefly: Northern blot analysis, PAI-1 mRNA, BME cells. As to the method:
as §3

The test system of series [14] is BME cells. Briefly: Toxicity observed in BME cell cultures.

For the compound `CC(C)=CCc1c(O)cc(O)c2c1OC(c1ccc(O)cc1)CC2=O` (racemic) [8-Prenylnaringenin, 5,7-Dihydroxy-2-(4-hydroxyphenyl)-8-(3-methylbut-2-enyl)-chroman-4-on], the “uPA mRNA steady state level, maximal effect” value in the series with uPA mRNA [1] came out at 7.5 fold increase. The “uPAR mRNA levels” value in the series with uPAR mRNA [2] is given as “virtually no effect”. The “tPA mRNA steady state level, maximal effect” value with tPA mRNA came to 9.6 fold increase. The “uPA mRNA levels” value with uPA mRNA [3] is “virtually no effect”. In addition, in the series with PAI-1 [4], the PAI-1 entry is given as “decrease”. In addition, the uPA activity entry is “dose-dependent increase” with uPA [5] and “increased” in the series on uPA [13] (15 hours, serum-free). Also, in the series with PAI-1 [6], the PAI-1 activity result is reported as “reduction”. Further, the tPA activity result in the series on tPA [7] (15 hours, serum-free) is given as “increased”; in the series on tPA [8] (15 hours, serum-free), “dose-dependent increase”. Also, the “induction of tPA activity, effect of bFGF co-treatment” value in the series on tPA [7] (with bFGF (3ng/ml)) and with tPA [8] (with bFGF (10ng/ml)) was “potentiates” throughout. Besides, the “induction of tPA activity, combination with VEGF” value in the series on tPA [8] (with VEGF, data not shown) is “synergize”. The “uPAR mRNA steady state level, maximal effect” value with uPAR mRNA [9] was found to be 6.4 fold increase. Also, the tPA levels in the series with tPA [10] is listed as 4.6 fold increase. In the series with BME cells [11] (BME cells, collagen gel), the “in vitro angiogenesis induced by bFGF, VEGF or a combination of the bFGF and VEGF” value was “inhibits”. Moreover, the IC50 in the series on BME cells [11] (Bos taurus, induced by bFGF (10ng/ml), VEGF (30ng/ml) or both, irrespective of the angiogenic stimulus, read-out: IC50 of inhibition of BME cell invasion) was 3 to 10 µM; in the series on BME cells [12] (120 h, 5 day assay, 5% DCS, with or without bFGF, read-out: IC50 of inhibition of BME cell proliferation (cell number)), roughly 10 µM. Besides, the inhibition at 30 µM in the series on BME cells [12] (absence of bFGF) came out at 67%; with BME cells [12] (presence of bFGF (10ng/ml)), 75%. Further, in the series with uPA [13] (with bFGF (3ng/ml)), the “bFGF-induced uPA activity” value was “reduces”. Moreover, the “levels of PAI-1 mRNA” value in the series on PAI-1 mRNA was “no significant effect”. For the same compound, in the series with BME cells [14] (15 hours, absence of serum), the “concentration at which frank toxicity was observed” value came out at 30 µM. The “concentration at which toxicity was seen” value in the series on BME cells [14] (presence of 2% serum) was determined as 100 µM.

The values are drawn from patent EP1360959A1, “Use of 8-prenylflavanones for anti-angiogenesis therapy and for fibrinolytic therapy” (Schering Aktiengesellschaft, priority 2002, dated 2003).
